Assays:
[1] = Glutathione depletion assay (Michael reaction with reduced glutathione followed by 1H NMR); conditions: 2 equiv. reduced glutathione, d6-DMSO, 35° C.
Text: Accordingly, the present compounds may be assessed in vitro by reaction with glutathione as follows:
(with the top securely fastened).
In all the above cases, dis-appearance of the alkene proton signals from the starting material are used to determine the extent of Michael reaction with glutathione.
As would be understood by those of skill in the art, the above experiments can be repeated by varying the equivalents of reduced glutathione (0.5 to 2 equivalents); the reactions can also be run in a mixture of d6-DMSO and D2O; and the temperature of the reaction can also be varied from room temperature to 35° C. (35° C. being used to mimic body temperature). As used herein “majority reaction” means a greater than 50% reduction in alkene proton signal as observed by ^1H NMR.

[2] = tested on: experimental autoimmune encephalomyelitis (EAE); assay: Experimental autoimmune encephalomyelitis (EAE) animal model; assay type: in vivo, mice (C57BL/6); conditions: mice, dosed at 60 mg/kg beginning on the day of immunization
[3] = tested on: NrF2 (Nuclear factor (erythroid-derived 2)-like 2); assay: NrF2 activation in a whole cell nuclear translocation assay; assay type: cell-based
Method: Compounds are tested in a NrF2 (Nuclear factor (erythroid-derived 2)-like 2) translocation assay by adapting the methods set forth in U.S. Pat. No. 8,101,373, the disclosure of which is incorporated herein by reference. A result of NrF2 activation in the assay by the present compounds is an indication of their anti-inflammatory activity.
In addition to monomethyl fumarate and dimethyl fumarate, bardoxolone methyl may be used as a positive control.

COC(=O)/C=C/n1nnn(C)c1=O [methyl (E)-3-(4-methyl-5-oxo-4,5-dihydro-1H-tetrazol-1-yl)acrylate]
time to majority reaction with glutathione (greater than 50% reduction in alkene proton signal by 1H NMR) [1]: ≤ 30 h

COC(=O)/C=C/n1nn[nH]c1=O [methyl (E)-3-(5-oxo-4,5-dihydro-1H-tetrazol-1-yl)acrylate]
time to majority reaction with glutathione (greater than 50% reduction in alkene proton signal by 1H NMR) [1]: ≤ 30 h | onset of disease paralysis [2]: significantly prevents the onset of disease paralysis

COC(=O)/C=C/C(=O)O [monomethylfumarate]
EC50 [3]: ~127 µM

— patent US10889562B2, “Prodrugs of Nrf2 activating compounds and uses thereof” (Rigel Pharmaceuticals, Inc., priority 2018, dated 2021)
